Laboratory results: paper PMC7255104, “Receptor Characterization and Functional Activity of Pyrokinins on the Hindgut in the Adult Mosquito, Aedes aegypti” (Frontiers in Physiology, 2020)
Where a SMILES comes first, the peptide text is derived from it. [ ]: non-standard residue; d: D form. pGlu = O=C1CC[C@@H](C(=O)O)N1

What was measured:
[1] = tested on: isolated recta of A. aegypti; assay: Rectal contraction assay (impedance converter); design: species or system Aedes aegypti; conditions: 1 μM, 2-min interval, mean of 6-18 preparations
Protocol: Hindgut contraction assays were conducted on isolated […] of female A. aegypti. […] The isolated tissue was secured with minutien pins within a Sylgard-lined petri-dish. Given its high sequence similarity to endogenous A. aegypti PK2 peptides (Supplementary Table S1), we used the R. prolixus PK2b peptide ([Paluzzi and O'Donnell, 2012]), henceforth referred to as RhoprPK2b, for motility bioassays. Commercially synthesized peptides (Genscript, Piscataway, NJ, United States), […] ([…]) and RhoprPK2[…]), were used to examine myomodulatory activity. […] To assess whether PK1 peptides plays a role in regulating rectal motility, contractions were monitored in saline to obtain baseline contraction rates and subsequently following […] or 5-HT treatments, using probes connected to an impedance converter (UFI model 2991, Morro Bay, CA, United States) connected to a Powerlab 4/30 and laptop computer running LabChart […].0 software (AD Instruments, Colorado Springs, CO, United States). […] Probes were positioned on either side of the rectum by observation with a dissecting microscope (Olympus SZ61), and contractile responses were recorded on LabChart […].0 software (AD Instruments, Colorado Springs, CO, United States). Contractions were monitored for two minutes prior to, and after the addition of either […] or 5-HT. […]

[2] = tested on: isolated ilea of female A. aegypti; assay: Ileal motility assay (video recordings); design: species or system Aedes aegypti; conditions: Figure 6, 1 μM, 5-HT added together with 1 μM RhoprPK2b
Protocol: Hindgut contraction assays were conducted on isolated […] of female A. aegypti. […] The isolated tissue was secured with minutien pins within a Sylgard-lined petri-dish. Given its high sequence similarity to endogenous A. aegypti PK2 peptides (Supplementary Table S1), we used the R. prolixus PK2b peptide ([Paluzzi and O'Donnell, 2012]), henceforth referred to as RhoprPK2b, for motility bioassays. Commercially synthesized peptides (Genscript, Piscataway, NJ, United States), […] ([…]) and RhoprPK2[…]), were used to examine myomodulatory activity. Serotonin (5-hydroxytryptamine, 5-HT; Sigma-Aldrich, Oakville, ON, Canada), previously shown to stimulate A. aegypti hindgut contractions ([Messer and Brown, 1995]), was used as a stimulatory control. Given the inhibitory properties of myoinhibitory peptides (having the consensus W(X6)W-NH2 carboxyl terminus) on insect hindgut motility ([Lange et al., 2012]), RhoprMIP-7 ([…]; Genscript, Piscataway, NJ, United States; [Paluzzi et al., 2015]) was used as an inhibitory control. […] Unlike the rectum, the mosquito ileum produces weaker contractions that we were unable to measure using an impedance converter as described above. […] The dissected gut was pinned in the midgut and rectum to allow the ileum to freely contract in saline and following treatments. Contractions were recorded for 2 min in saline that was used for baseline activity measurements, followed by three subsequent 2-min recordings, including: […] The RhoprPK2b was added along with the stimulatory or inhibitory compound (5-HT or RhoprMIP-7, respectively), to maintain its 1 μM concentration in the bath. […] To account for any potential changes in tissue contractile activity upon adding solutions to the bath, each of these variables were measured relative to baseline saline recordings of the same preparation as a ratio of change, where a value above or below one indicates an increase or a decrease, (respectively), in the rate, duration or length between each contraction in response to the treatment.

[3] = tested on: A. aegypti PK1-R; assay: Heterologous functional receptor assay (aequorin bioluminescence), PK1-R; type: cell-based, Aedes aegypti; conditions: CHO-K1 cells expressing PK1-R; luminescent response
Source text: The complete open reading frame was amplified based on the partial ([Nene et al., 2007]) and complete sequences ([Choi et al., 2013]) reported earlier for the A. aegypti PK1-R (Genbank accession: EAT35008.1) and PK2-R (Genbank accession: KC155994.1). Forward 5′-[…]-3′ (PK1-R) or 5′-[…]-3′ (PK2-R) and reverse 5′-[…]-3′ (PK1-R) or 5′-[…]-3′ (PK2-R) primers were designed over the start and stop codons (underlined), respectively, and used to amplify the complete coding sequence using Q5 High-Fidelity DNA polymerase following manufacturer recommendations (New England Biolabs, Whitby, ON). […] The resulting products were cloned into pGEM-T Easy sequencing vector, and miniprep samples were sequenced to verify base accuracy. […]
Chinese hamster ovary cells (CHO-K1) described previously ([Paluzzi et al., 2012]; [Gondalia et al., 2016]; [Wahedi and Paluzzi, 2018]) were grown in Dulbecco’s modified eagles medium: nutrient F12 (DMEM:F12) media containing 10% heat-inactivated fetal bovine serum (FBS; Wisent, St. Bruno, QC, Canada), 200 μg/mL geneticin, and antimycotic-antibiotic mixture as described previously ([Wahedi and Paluzzi, 2018]). […] Various concentrations of synthesized PK peptides and other peptides (purity > 90%; Genscript, Piscataway, NJ, United States) were prepared in BSA media and loaded in quadruplicate into white 96-well luminescence plates (Greiner Bio-One, Germany). […]

[4] = biological target: T1, A. aegypti PK2-R (Aedes aegypti, UniProt V9P4J1); assay: Heterologous functional receptor assay (aequorin bioluminescence), PK2-R; type: cell-based; conditions: CHO-K1 cells expressing PK2-R
T1 sequence (V9P4J1 1-638): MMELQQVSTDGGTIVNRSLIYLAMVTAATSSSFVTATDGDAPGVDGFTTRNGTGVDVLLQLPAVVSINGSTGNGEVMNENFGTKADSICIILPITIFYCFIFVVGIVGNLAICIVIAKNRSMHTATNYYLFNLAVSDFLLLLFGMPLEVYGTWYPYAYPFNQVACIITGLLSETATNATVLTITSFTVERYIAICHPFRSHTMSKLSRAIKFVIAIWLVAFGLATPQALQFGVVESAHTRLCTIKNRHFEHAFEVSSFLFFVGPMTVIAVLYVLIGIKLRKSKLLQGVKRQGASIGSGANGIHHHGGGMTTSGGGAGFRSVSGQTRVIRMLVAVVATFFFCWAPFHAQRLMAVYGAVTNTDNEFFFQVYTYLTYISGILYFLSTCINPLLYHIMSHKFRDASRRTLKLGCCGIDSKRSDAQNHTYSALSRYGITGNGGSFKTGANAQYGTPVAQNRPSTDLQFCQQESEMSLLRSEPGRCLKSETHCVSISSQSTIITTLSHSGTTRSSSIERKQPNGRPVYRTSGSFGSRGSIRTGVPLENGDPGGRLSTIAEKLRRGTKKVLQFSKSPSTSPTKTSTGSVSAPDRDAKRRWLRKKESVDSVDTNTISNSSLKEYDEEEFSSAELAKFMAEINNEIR
Source text: The complete open reading frame was amplified based on the partial ([Nene et al., 2007]) and complete sequences ([Choi et al., 2013]) reported earlier for the A. aegypti PK1-R (Genbank accession: EAT35008.1) and PK2-R (Genbank accession: KC155994.1). Forward 5′-[…]-3′ (PK1-R) or 5′-[…]-3′ (PK2-R) and reverse 5′-[…]-3′ (PK1-R) or 5′-[…]-3′ (PK2-R) primers were designed over the start and stop codons (underlined), respectively, and used to amplify the complete coding sequence using Q5 High-Fidelity DNA polymerase following manufacturer recommendations (New England Biolabs, Whitby, ON). […] The resulting products were cloned into pGEM-T Easy sequencing vector, and miniprep samples were sequenced to verify base accuracy. The receptor constructs were excised using standard restriction enzyme digestion and subcloned into the mammalian expression vector, pcDNA 3.1^+ (Life Technologies, Burlington, ON, Canada). Transfection quality plasmid DNA was purified from an overnight bacterial culture using the PureLink MidiPrep Kit (Invitrogen, Burlington, ON, Canada) following manufacturer guidelines.
Chinese hamster ovary cells (CHO-K1) described previously ([Paluzzi et al., 2012]; [Gondalia et al., 2016]; [Wahedi and Paluzzi, 2018]) were grown in Dulbecco’s modified eagles medium: nutrient F12 (DMEM:F12) media containing 10% heat-inactivated fetal bovine serum (FBS; Wisent, St. Bruno, QC, Canada), 200 μg/mL geneticin, and antimycotic-antibiotic mixture as described previously ([Wahedi and Paluzzi, 2018]). […] Various concentrations of synthesized PK peptides and other peptides (purity > 90%; Genscript, Piscataway, NJ, United States) were prepared in BSA media and loaded in quadruplicate into white 96-well luminescence plates (Greiner Bio-One, Germany).
Luminescence responses to A. aegypti CAPA-1 (GPTVGLFAFPRV-NH2), CAPA-2 (pQGLVPFPRV-NH2) and CAPA-PK1 (AGNSGANSGMWFGPRL-NH2) peptides, along with the R. prolixus PK2 orthologs, PK2a (NTVNFSPRL-NH2), and PK2b (SPPFAPRL-NH2) were examined. A list of peptides used in this study and sequence comparison to native A. aegypti pyrokinin peptides is found in Supplementary Table S1. Cells prepared for the functional assay were loaded into each well of the plate using an automated injector unit and luminescent response was measured with a Synergy 2 Multi-Mode Microplate Reader (BioTek, Winooski, VT, United States). Negative controls were carried out using BSA media alone whereas 50 μM ATP, which activates endogenously expressed purinoceptors ([Iredale and Hill, 1993]; [Michel et al., 1998]), was used as a positive control. Luminescence responses were normalized to ATP responses and analyzed in GraphPad Prism 7.02 (GraphPad Software, San Diego, CA, United States). EC50 values were determined using dose-response curves from multiple biological replicates.

[5] = tested on: anti-RhoprCAPA-2 primary antiserum (antigen EGGFISFPRV-NH2); assay: Competitive ELISA for antibody cross-reactivity; type: binding, rabbit; conditions: antiserum 1:1000; absorbance at 450 nm; mean ± SEM, n = 4; read-out: IC50, competitive ELISA against 1 nM biotinylated-DromeCAPA
Protocol: In brief, 96-well plates were coated with anti-RhoprCAPA-2 primary antiserum diluted to 1:1000 in carbonate buffer (15 mM Na2CO3-H2O and 35 mM NaHCO3 in water; pH 9.4) and incubated overnight at 4°C. Plate contents were discarded, blotted, and rinsed three times with wash buffer (350 mM NaCl, 2.7 mM KCl, 1.5 mM KH2PO4, 5.15 mM Na2HPO4-H2O, and 0.05% Tween-20 (v/v) in water). Wells were then incubated for 1.5 h on a rocker with block buffer [0.5% skim milk powder (w/v) and 0.5% BSA (w/v) in PBS]. The block solution was discarded, and standard solutions were added (100 μL/well). Standards consisted of AedaeCAPA-1 and AedaeCAPA-2 diluted in block buffer to achieve concentrations ranging from 250 pM to 250 nM, or AedaeCAPA-PK1 and RhoprPK2b from 4.8 nM to 75 uM. After a 1.5 h incubation on a rocker, 1 nM biotinylated-DromeCAPA diluted in block buffer ([MacMillan et al., 2018]) was added (100 μL/well) to compete with the unlabeled peptide standards for antibody binding. Following overnight incubation at 4°C, the wells were washed four times with wash buffer, and incubated at 4°C for 1.5 h with Avidin-HRP (1:2000; Bio-Rad, Mississauga, ON, Canada). […] Reactions were stopped with 100 μL/well 2N HCl and absorbance at 450 nm was measured using a Synergy 2 Multi-Mode Microplate Reader (BioTek, Winooski, VT, United States).

| SMILES | fold change in contraction rate of female recta relative to baseline in saline ([1]; female recta) | fold change in contraction rate of male recta relative to baseline in saline ([1]; male recta) | ileal contraction frequency relative to baseline ([2]; 2-min recordings, mean of 15 preparations) | duration of each ileal contraction relative to baseline ([2]; 15 preparations) | length of time between ileal contractions relative to baseline ([2]; 15 preparations) | activation of PK1-R (in words) [3] | activation of PK2-R (in words) ([4]; luminescent response) | activation of PK2-R relative to the highly potent pyrokinins ([4]; very high concentrations) | IC50 [5] |
| --- | --- | --- | --- | --- | --- | --- | --- | --- | --- |
| NCCc1c[nH]c2ccc(O)cc12 [5-HT, 5-hydroxytryptamine] | 1.97 fold | 2.48 fold | 2.88 fold | effectively reduced | effectively reduced |  |  |  |  |
| CC(C)C[C@H](NC(=O)CNC(=O)[C@@H]1CCC(=O)N1)C(=O)N[C@H](C(=O)N1CCC[C@H]1C(=O)N[C@@H](Cc1ccccc1)C(=O)N1CCC[C@H]1C(=O)N[C@@H](CCCNC(=N)N)C(=O)N[C@H](C(N)=O)C(C)C)C(C)C [AedaeCAPA-2] ([pGlu]GLVPFPRV-NH2) |  |  |  |  |  | effective in activating PK1-R at high concentrations | only active on PK2-R at very high concentrations | ≤ 25% | 16.9 nM |
